Measured values as given in ChEMBL document CHEMBL1159034, “Emodin, a protein tyrosine kinase inhibitor from Polygonum cuspidatum” (J Nat Prod, 1992).
In brackets after ≈: the same amount, converted by molar mass. Activity calls are given as the source filed them. No cut-off for these calls is given here.

Tests used:
[1] = Inhibition of bovine thymus p56 LCK activity by competitive inhibition assay; set-up: species or system Bos taurus
[2] = Inhibition of bovine thymus p56 LCK activity; set-up: species or system Bos taurus
Bos taurus = species on record: Bos taurus; assay: Inhibition of bovine thymus p56 LCK activity by noncompetitive inhibition assay

SMILES | Ki [1] [µM] | IC50 [2] [µg/mL] | Activity (Bos taurus)
Cc1cc(O)c2c(c1)C(=O)c1cc(O)cc(O)c1C2=O [EMODIN] | 13 | 5 (≈ 18.5 µM) | Active
COc1cc(O)c2c(c1)C(=O)c1cc(C)cc(O)c1C2=O [PHYSCION] | – | > 800 | –
Cc1cc(O)c2c(c1)C(=O)c1cc(O)cc(O[C@@H]3O[C@H](CO)[C@@H](O)[C@H](O)[C@H]3O)c1C2=O [EMODIN 8-O-BETA-D-GLUCOPYRANOSIDE] | – | > 800 | –
